Target: Protein Tat (Human immunodeficiency virus type 1 group M subtype B (isolate HXB2)) (UniProt P04608)
Assay: HIV-1 Tat–TAR interaction blockers – biochemical, fluorescence polarization, FAM-labeled TAR RNA, counter-screen for Vif-APOBEC3G degradation inhibitor project, dose response (AID 1117361)
Conditions: Tat-TAR RNA binding

Sequence of Protein Tat (Human immunodeficiency virus type 1 group M subtype B (isolate HXB2)) (P04608 whole entry, looked up): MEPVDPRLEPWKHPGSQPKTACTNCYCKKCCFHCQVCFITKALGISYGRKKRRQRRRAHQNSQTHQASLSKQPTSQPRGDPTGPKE

| Compound | IC50 |
| --- | --- |
| CO[C@H]1C=CO[C@@]2(C)Oc3c(C)c(O)c4c(O)c(c(C=NN5CCN(C)CC5)c(O)c4c3C2=O)NC(=O)C(C)=CC=C[C@H](C)[C@H](O)[C@@H](C)[C@@H](O)[C@@H](C)[C@H](OC(C)=O)[C@@H]1C | 11.2 µM |
| O=c1nc2s/c(=C\c3ccco3)c(=O)n2nc1Cc1ccccc1 | 5.21 µM |
| COC(=O)\C(C(C)=O)=C(/C=C/C=C/C=C/N(C)C)N(C)C | 56.3 µM |
| CCOc1cc(N2CCOCC2)c(OCC)cc1NS(=O)(=O)c1ccc(Cl)s1 | 14.9 µM |
| Cc1cccc(C)c1NC(=O)COC(=O)c1cc(-c2cccnc2)nc2ccccc12 | 84.6 µM |
| C=C(C)C(=O)Nc1cccc(C2=NOC3(C2)C[C@@H](C(N)=O)N(C(=O)CC(c2ccccc2)c2ccccc2)C3)c1 (stereo not given in full) | 29.3 µM |
| Cc1ccc(-c2ccc(CCC(=O)O)n2NC(N)=S)cc1 | 17.8 µM |
| CCOC(=O)C1=C(c2ccccc2)N=c2s/c(=C\c3ccco3)c(=O)n2C1c1cccs1 (stereo not given) | 32.8 µM |
| CCOC(=O)CSc1nncc2ccc(OC)c(OC)c12 | 56.6 µM |
| O=C(O)CSc1c2c(nc3cc(C(=O)N4CCOCC4)ccc13)CCCC2 | 12.2 µM |
| Oc1ccc(N=Cc2ccc(-c3cccs3)s2)cc1 | 8.64 µM |
| CSc1nc(NCCOCCO)c2sc3nc(-c4ccco4)c4c(c3c2n1)CCC4 | 9.42 µM |
| O=C(O)C1OC(Oc2c(-c3ccc(O)c(O)c3)oc3cc(O)cc(O)c3c2=O)C(O)C(O)C1O (stereo not given) | 2.12 µM |
| CC(N=Cc1cccc(O)c1O)c1ccccc1 (stereo not given) | 6.96 µM |
| O=C(CCCN1C(=O)/C(=C\c2ccco2)SC1=S)Nc1cccc2ccccc12 | 7.92 µM |
| Cc1[nH]c2c(Cl)cccc2c(=O)c1CN1CCCC1 | 78.3 µM |
| O=C(C1CCCO1)N1CCC2(CC1)OCCO2 (stereo not given) | 5.55 µM |
| CCCn1c(=N)n(CC(O)c2ccco2)c2ccccc21 (stereo not given) | 78.2 µM |
| O=[N+]([O-])c1cc(-c2ccc(/C=N/c3nc4ccccn4c3-c3ccco3)o2)ccc1Cl | 28.7 µM |
| CCOC(=O)c1c(C)oc2c1c(C=NCc1ccccn1)c(O)c1ccccc12 | 4.15 µM |
| O=C1NC(=O)N(Cc2ccccc2)C(=O)/C1=C\C=C\c1ccco1 | 30.9 µM |
| CSc1ccc(/C=N/Nc2cccc(C(=O)O)c2)cc1 | 5.81 µM |
| C=CCn1c(SCC(=O)NCCCC)nc2scc(-c3ccco3)c2c1=O | 17.8 µM |
| Cc1ccc2c(c1)C1C=CCC1C(C(=O)O)N2 (stereo not given) | 3.75 µM |
| CCCC(=O)N(CCc1ccc(OC)cc1)Cc1nc2ccccc2c(=O)[nH]1 | 71.8 µM |
| Nc1c(C(=O)NC2CC2)sc2nc3c(c(-c4ccco4)c12)CC/C3=C/c1ccco1 | 0.937 µM |
| Cc1ccc(-n2c(-c3cc(-c4ccco4)[nH]n3)n[nH]c2=S)c(Br)c1 | 6.09 µM |
| COCCNC(=O)COC(=O)c1[nH]c(C)c(C(C)=O)c1C | 35.4 µM |

| Compound | IC50 |
| --- | --- |
| c1cncc(-c2nnc3sc(-c4ccco4)nn23)c1 | 64 µM |
| CN1CCN(C2=C(Cl)C(=O)c3ccccc3C2=O)CC1 | 40 µM |
| COC(=O)c1cnn2c(C(F)(F)F)cc(-c3ccco3)nc12 | 68.1 µM |
| O=C(OC1CCCCC1)c1ccc2c(c1)C1C=CCC1C(C(=O)O)N2 (stereo not given) | 2.26 µM |
| CCOc1cccc(=O)c2c(C)n(-c3ccc(C(=O)O)cc3)c(C)c12 | 3.3 µM |
| COc1cccc(NC(=O)CSc2nnc(-c3ccco3)c(-c3ccco3)n2)c1 | 69.3 µM |
| CCOC(=O)C1=C(N)n2c(s/c(=C\c3ccco3)c2=O)=C(C(=O)OCC)C1c1ccco1 (stereo not given) | 7.85 µM |
| C=CC1=C(C(=O)O)N2C(=O)C(NC(=O)Cc3ccccc3)C2SC1 (stereo not given) | 64.2 µM |
| Oc1ccc(/C=N/N2CCOCC2)c(O)c1O | 14 µM |
| O=C(Nc1ccc2nc(-c3ccco3)c(-c3ccco3)nc2c1)NC1CC1 | 1.83 µM |
| O=C(O)C(Cc1ccccc1)N1C(=O)/C(=C/C=C/c2ccco2)SC1=S (stereo not given) | 1.26 µM |
| O=c1cc(-c2ccc(O)cc2)oc2c(O)c(O)c(O)c(O)c12 | 74.9 µM |
| CCc1cc2cc(C)cc(C)c2nc1SCC(=O)N1CCN(C(=O)c2ccco2)CC1 | 39.3 µM |
| O=c1oc(/C=C/c2ccco2)nc2sc3c(c12)CCC3 | 11.9 µM |
| O=C1C(=Cc2ccco2)CCCC1=Cc1ccco1 | 63.9 µM |
| COc1cc(/C=C2/C(=O)c3cccc([N+](=O)[O-])c3C2=O)c(Br)cc1O | 96.5 µM |
| CC1=NN(C(N)=S)C(=O)C1N=Nc1cccc([N+](=O)[O-])c1 (stereo not given) | 99.2 µM |
| O=S(=O)(c1ccc(OCC(O)CN2CCC(Cc3ccccc3)CC2)cc1)N1CCOCC1 (stereo not given) | 10.3 µM |
| CCOc1ccc(N(CC(=O)NC(C)(C)C)S(=O)(=O)c2c(C)noc2C)cc1 | 5.37 µM |
| N=C1/C(=C/c2ccc(Br)o2)C(=O)N=C2SC(CC(=O)N3CCCC3)=NN12 | 53.7 µM |
| Nc1cc(N)c(OCC(F)(F)F)cc1OCC(F)(F)F | 11.4 µM |
| O=C1/C(=C/c2ccco2)SC(=S)N1c1cccnc1 | 3.9 µM |
| CCOC(=O)c1ccc(NS(=O)(=O)c2ccc3c(c2)oc(=O)n3C)cc1 | 0.996 µM |
| CCc1ccc(NC(=O)N(CCN2CCOCC2)Cc2ccc3c(c2)CCCN3CC)cc1 | 74.5 µM |
| COC(=O)CSc1nnc(CNC(=O)Cc2ccccc2)n1C | 1.43 µM |
| O=C(NCc1ccccc1)c1ccc2nc(-c3ccco3)c(-c3ccco3)nc2c1 | 4.55 µM |
| CCOC(=O)c1sc2nc(CC(=O)OC)nc(NCc3ccco3)c2c1C | 16.1 µM |

From PubChem BioAssay AID1117361 (Southern Research Institute, 2015)
